Here are results for 18 compounds from ChEMBL document CHEMBL4396872, “Pharmacokinetics-Driven Optimization of 4(3 H)-Pyrimidinones as Phosphodiesterase Type 5 Inhibitors Leading to TPN171, a Clinical Candidate for the Treatment of Pulmonary Arterial Hypertension” (J Med Chem, 2019).

Molecules are shown by their SMILES. The source made the active and inactive calls. No cut-off for these calls is given here.

Data set [1] is filed under the species Homo sapiens. Nature of the data set: Selectivity ratio of IC50 for N-terminal GST-tagged human PDE6C to IC50 for N-terminal GST-tagged human PDE5A1.
In data set [2] the target is cGMP-specific 3',5'-cyclic phosphodiesterase (Homo sapiens, UniProt O76074). Nature of the data set: Inhibition of N-terminal GST-tagged human PDE5A1 expressed in baculovirus infected sf9 cells using [3H]cGMP as substrate measured after 30 mins by scintillation proximity assay. For orientation: SPA uses beads or plates that emit light when radiolabelled molecules are held near them.

Data set [3] has as its system Rattus norvegicus. Nature of the data set: […] activity in MCT-induced pulmonary arterial hypertension Sprague-Dawley rat model assessed as reduction in mean pulmonary artery pressure at 25 mg/kg administered once daily for 21 days starting from 21 days post-MCT challenge by right cardiac catheter method. It counts as functional, organism-based.
Data set [4] deals with Rattus norvegicus. Nature of the data set: […] activity in MCT-induced pulmonary arterial hypertension Sprague-Dawley rat model assessed as reduction in mean pulmonary artery pressure at 100 mg/kg administered once daily for 21 days starting from 21 days post-MCT challenge by right cardiac catheter method. In kind it is functional, organism-based.
Data set [5] has as its system Rattus norvegicus. Nature of the data set: […] activity in MCT-induced pulmonary arterial hypertension Sprague-Dawley rat model assessed as reduction in mean pulmonary artery pressure at 1 mg/kg administered once daily for 21 days starting from 21 days post-MCT challenge by right cardiac catheter method. In kind it is functional, organism-based.
Data set [6] is described as follows: Oral bioavailability in Sprague-Dawley rat at 1 mg/kg measured up to 24 hrs by HPLC analysis. It counts as ADME, organism-based. The settings on record: in vivo.
Data set [7] is described as follows: Half-life in Sprague-Dawley rat at 1 mg/kg, po measured up to 24 hrs by HPLC analysis. It counts as ADME, organism-based. The settings on record: in vivo.
Data set [8] in a line: Half-life in Sprague-Dawley rat at 4 mg/kg, iv measured up to 24 hrs by HPLC analysis. It counts as ADME, organism-based. The settings on record: in vivo.
A short description of data set [9]: Clearance in Sprague-Dawley rat at 4 mg/kg, iv measured up to 24 hrs by HPLC analysis. It counts as ADME, organism-based. The conditions noted are these: in vivo.
Data set [10] relates to Rattus norvegicus. Nature of the data set: Antihypertensive activity in spontaneously hypertensive rat assessed as reduction in mean arterial pressure at 20 mg/kg administered via single gavage and measured at 4 hrs. In kind it is functional, organism-based.
In data set [11] the test system is Rattus norvegicus. Nature of the data set: Antihypertensive activity in spontaneously hypertensive rat assessed as reduction in mean arterial pressure at 20 mg/kg administered via single gavage after 6 hrs. In kind it is functional, organism-based.
A short description of data set [12]: Tmax in Sprague-Dawley rat at 1 mg/kg, po measured up to 24 hrs by HPLC analysis. In kind it is ADME, organism-based. The settings on record: in vivo.
Data set [13] can be described thus: Cmax in Sprague-Dawley rat at 1 mg/kg, po measured up to 24 hrs by HPLC analysis. In kind it is ADME, organism-based. On the set-up: dose 1 mg/kg, route oral. The conditions noted are these: in vivo.
In data set [14] the test system is Rattus norvegicus. Nature of the data set: Antihypertensive activity in spontaneously hypertensive rat assessed as reduction in mean arterial pressure at 20 mg/kg administered via single gavage and measured at 2 hrs. It counts as functional, organism-based.
The nature of data set [15]: Volume of distribution at steady state in Sprague-Dawley rat at 4 mg/kg, iv measured up to 24 hrs by HPLC analysis. In kind it is ADME, organism-based. The conditions noted are these: in vivo, read-out: Vdss.
Data set [16] in a line: Metabolic stability in human liver microsomes assessed as parent compound remaining at 1 uM in presence of NADPH after 30 mins by LC-MS/MS analysis. In kind it is ADME, Microsome. The conditions noted are these: read-out: Stability. In general terms: Liver microsomes are vesicles of endoplasmic reticulum, rich in cytochrome P450 enzymes.
The nature of data set [17]: Volume of distribution at steady state in iv dosed rat. It counts as ADME, organism-based. The conditions noted are these: in vivo.
Data set [18] deals with High affinity cGMP-specific 3',5'-cyclic phosphodiesterase 9A (Homo sapiens, UniProt O76083). Nature of the data set: Inhibition of N-terminal GST-tagged full length human PDE9A2 expressed in baculovirus infected sf9 cells using [3H]cGMP as substrate measured after 30 mins by scintillation proximity assay.
Chain of High affinity cGMP-specific 3',5'-cyclic phosphodiesterase 9A (O76083 whole entry): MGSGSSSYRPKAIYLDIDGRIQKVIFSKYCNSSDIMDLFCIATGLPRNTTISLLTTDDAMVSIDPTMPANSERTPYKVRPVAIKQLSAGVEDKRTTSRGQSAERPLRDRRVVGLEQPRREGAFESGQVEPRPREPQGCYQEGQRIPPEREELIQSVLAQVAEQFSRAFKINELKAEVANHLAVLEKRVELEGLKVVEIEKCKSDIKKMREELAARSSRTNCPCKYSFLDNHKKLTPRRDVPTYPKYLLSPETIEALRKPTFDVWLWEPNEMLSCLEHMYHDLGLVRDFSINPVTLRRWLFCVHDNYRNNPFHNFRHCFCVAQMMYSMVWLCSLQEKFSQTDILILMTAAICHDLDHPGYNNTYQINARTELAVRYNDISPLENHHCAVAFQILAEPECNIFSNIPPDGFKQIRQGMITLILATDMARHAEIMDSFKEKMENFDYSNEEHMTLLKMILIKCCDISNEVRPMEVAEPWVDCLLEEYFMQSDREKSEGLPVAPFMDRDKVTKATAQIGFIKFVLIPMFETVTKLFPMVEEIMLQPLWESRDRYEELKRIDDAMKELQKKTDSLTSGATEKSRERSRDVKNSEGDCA
Data set [19] concerns the target Phosphodiesterase 7 (Homo sapiens, UniProt Q13946+Q9NP56). Nature of the data set: Inhibition of N-terminal GST-tagged human PDE7 expressed in baculovirus infected sf9 cells using [3H]cAMP as substrate measured after 30 mins by scintillation proximity assay.
Data set [20] has as its target Phosphodiesterase 3 (Homo sapiens, UniProt Q14432+Q13370). Nature of the data set: Inhibition of N-terminal GST-tagged human PDE3 expressed in baculovirus infected sf9 cells using [3H]cAMP as substrate measured after 30 mins by scintillation proximity assay.
Data set [21] is described as follows: Clearance in iv dosed rat. It counts as ADME, organism-based. The settings on record: in vivo.
For data set [22], the target named is Phosphodiesterase 1 (Homo sapiens, UniProt P54750+Q01064+Q14123). Nature of the data set: Inhibition of N-terminal GST-tagged human PDE1 expressed in baculovirus infected sf9 cells using [3H]cAMP as substrate measured after 30 mins by scintillation proximity assay.
Data set [23] concerns the target cAMP and cAMP-inhibited cGMP 3',5'-cyclic phosphodiesterase 10A (Homo sapiens, UniProt Q9Y233). Nature of the data set: Inhibition of N-terminal GST-tagged human PDE10A expressed in baculovirus infected sf9 cells using [3H]cAMP as substrate measured after 30 mins by scintillation proximity assay.
In data set [24] the target is High affinity cAMP-specific and IBMX-insensitive 3',5'-cyclic phosphodiesterase 8A (Homo sapiens, UniProt O60658). Nature of the data set: Inhibition of N-terminal GST-tagged full length human PDE8A1 expressed in baculovirus infected sf9 cells using [3H]cAMP as substrate measured after 30 mins by scintillation proximity assay.
Chain of High affinity cAMP-specific and IBMX-insensitive 3',5'-cyclic phosphodiesterase 8A (O60658 whole entry): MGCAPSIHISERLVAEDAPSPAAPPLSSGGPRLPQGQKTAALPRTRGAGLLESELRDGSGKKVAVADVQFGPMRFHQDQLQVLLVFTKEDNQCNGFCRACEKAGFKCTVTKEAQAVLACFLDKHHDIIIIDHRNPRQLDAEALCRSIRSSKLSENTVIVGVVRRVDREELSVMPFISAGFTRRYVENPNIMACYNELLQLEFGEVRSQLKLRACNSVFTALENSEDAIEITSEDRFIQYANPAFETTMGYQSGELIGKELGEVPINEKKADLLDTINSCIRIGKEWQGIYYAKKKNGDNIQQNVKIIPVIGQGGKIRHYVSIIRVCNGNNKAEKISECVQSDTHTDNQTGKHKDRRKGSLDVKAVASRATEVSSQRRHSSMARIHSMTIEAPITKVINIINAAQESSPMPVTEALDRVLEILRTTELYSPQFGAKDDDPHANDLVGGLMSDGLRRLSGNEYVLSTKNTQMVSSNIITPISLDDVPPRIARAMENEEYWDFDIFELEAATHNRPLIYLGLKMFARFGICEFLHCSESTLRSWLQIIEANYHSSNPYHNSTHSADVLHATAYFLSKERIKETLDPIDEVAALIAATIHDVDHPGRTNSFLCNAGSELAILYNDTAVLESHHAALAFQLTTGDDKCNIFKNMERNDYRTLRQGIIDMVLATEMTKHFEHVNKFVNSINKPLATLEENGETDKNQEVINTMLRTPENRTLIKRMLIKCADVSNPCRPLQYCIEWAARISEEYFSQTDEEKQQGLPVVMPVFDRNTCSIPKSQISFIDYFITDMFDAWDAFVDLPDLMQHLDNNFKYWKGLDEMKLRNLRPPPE
Data set [25] has as its target cGMP-dependent 3',5'-cyclic phosphodiesterase (Homo sapiens, UniProt O00408). Nature of the data set: Inhibition of human PDE2A1 expressed in baculovirus infected sf9 cells using [3H]cAMP as substrate measured after 30 mins by scintillation proximity assay.
For data set [26], the system named is Rattus norvegicus. Nature of the data set: Antihypertensive activity in spontaneously hypertensive rat assessed as reduction in mean arterial pressure at 20 mg/kg administered via single gavage measured up to 24 hrs. In kind it is functional, organism-based.

Chain of cAMP and cAMP-inhibited cGMP 3',5'-cyclic phosphodiesterase 10A (Q9Y233 whole entry): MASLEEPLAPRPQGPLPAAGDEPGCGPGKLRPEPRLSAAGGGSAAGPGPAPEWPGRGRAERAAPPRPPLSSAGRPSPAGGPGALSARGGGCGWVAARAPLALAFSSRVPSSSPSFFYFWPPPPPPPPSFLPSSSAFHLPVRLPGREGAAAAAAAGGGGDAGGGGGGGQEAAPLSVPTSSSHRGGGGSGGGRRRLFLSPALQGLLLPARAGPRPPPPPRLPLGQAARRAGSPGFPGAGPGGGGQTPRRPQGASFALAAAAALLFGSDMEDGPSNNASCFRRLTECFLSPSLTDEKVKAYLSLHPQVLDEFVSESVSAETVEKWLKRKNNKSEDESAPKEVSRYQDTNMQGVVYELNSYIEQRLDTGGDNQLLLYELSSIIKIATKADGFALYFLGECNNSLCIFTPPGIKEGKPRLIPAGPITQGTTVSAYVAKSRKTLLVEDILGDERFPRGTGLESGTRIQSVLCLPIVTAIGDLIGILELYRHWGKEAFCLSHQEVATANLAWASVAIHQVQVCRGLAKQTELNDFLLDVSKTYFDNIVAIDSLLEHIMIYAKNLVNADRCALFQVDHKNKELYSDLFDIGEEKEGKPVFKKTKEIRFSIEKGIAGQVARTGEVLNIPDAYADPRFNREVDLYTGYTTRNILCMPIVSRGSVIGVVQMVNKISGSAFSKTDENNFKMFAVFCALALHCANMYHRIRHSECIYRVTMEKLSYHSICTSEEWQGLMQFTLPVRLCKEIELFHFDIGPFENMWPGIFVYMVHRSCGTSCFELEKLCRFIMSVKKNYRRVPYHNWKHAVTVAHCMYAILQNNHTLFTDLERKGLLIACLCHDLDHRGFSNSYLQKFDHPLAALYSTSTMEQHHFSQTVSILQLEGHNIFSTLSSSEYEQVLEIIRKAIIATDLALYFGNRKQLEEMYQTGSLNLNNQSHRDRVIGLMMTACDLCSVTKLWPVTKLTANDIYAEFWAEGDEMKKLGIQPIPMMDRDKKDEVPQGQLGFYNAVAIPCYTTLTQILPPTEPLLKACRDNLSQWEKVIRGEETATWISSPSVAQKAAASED
Chain of cGMP-dependent 3',5'-cyclic phosphodiesterase (O00408 whole entry): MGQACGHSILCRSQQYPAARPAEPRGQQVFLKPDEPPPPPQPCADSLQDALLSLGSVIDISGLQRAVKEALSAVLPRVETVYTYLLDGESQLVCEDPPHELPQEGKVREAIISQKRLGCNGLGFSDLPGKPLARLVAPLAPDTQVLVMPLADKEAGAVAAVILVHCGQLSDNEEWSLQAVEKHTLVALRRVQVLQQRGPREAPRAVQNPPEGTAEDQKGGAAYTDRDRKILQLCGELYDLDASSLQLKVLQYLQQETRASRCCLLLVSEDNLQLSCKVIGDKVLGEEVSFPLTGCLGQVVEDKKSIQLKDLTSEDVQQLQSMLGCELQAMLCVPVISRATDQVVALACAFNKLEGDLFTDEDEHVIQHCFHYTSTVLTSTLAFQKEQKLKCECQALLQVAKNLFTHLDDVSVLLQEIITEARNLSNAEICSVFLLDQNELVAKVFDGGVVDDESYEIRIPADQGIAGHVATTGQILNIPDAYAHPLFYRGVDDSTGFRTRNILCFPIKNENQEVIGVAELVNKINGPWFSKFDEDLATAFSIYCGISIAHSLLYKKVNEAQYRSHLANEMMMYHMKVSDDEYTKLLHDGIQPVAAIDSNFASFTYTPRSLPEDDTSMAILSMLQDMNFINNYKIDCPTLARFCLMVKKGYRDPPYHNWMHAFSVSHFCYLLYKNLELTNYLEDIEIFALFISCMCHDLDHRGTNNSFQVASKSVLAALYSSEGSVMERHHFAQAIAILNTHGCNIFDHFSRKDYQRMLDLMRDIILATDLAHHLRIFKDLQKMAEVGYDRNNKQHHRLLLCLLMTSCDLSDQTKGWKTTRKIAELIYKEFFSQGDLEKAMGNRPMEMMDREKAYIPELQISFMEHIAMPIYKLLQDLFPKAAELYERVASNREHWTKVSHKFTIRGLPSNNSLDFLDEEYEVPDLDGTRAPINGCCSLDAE

Regarding `CCCOc1ccc(S(=O)(=O)N2CCC[C@H]2C(=O)O)cc1-c1nc(CC)c(CC)c(=O)[nH]1`, the Ratio IC50 in [1] stood at 20. Moreover, the IC50 in [2] was 2.02 nM.

As to `CCCOc1ccc(S(=O)(=O)N(CCO)CCN2CCOCC2)cc1-c1nc(CC)c(CC)c(=O)[nH]1`, in data set [1], the Ratio IC50 was 10.

For `COc1ccccc1Oc1c(NS(=O)(=O)c2ccc(C(C)(C)C)cc2)nc(-c2ncccn2)nc1OCCO`, the outcome in [3], in [4] and in [5] was Active.

For `CCCOc1ccc(N)cc1-c1nc(CC)c(CC)c(=O)[nH]1`, in [1], the Ratio IC50 worked out at 10. In data set [2], this compound came in with an IC50 of 5.33 nM.

As for `CCCOc1ccc(NC(N)=O)cc1-c1nc(CC)c(CC)c(=O)[nH]1`, the Ratio IC50 in [1] was found to be 17.

Consider `CCCOc1ccc(NC(=O)N2CCCC2)cc1-c1nc(CC)c(CC)c(=O)[nH]1`, for which the Ratio IC50 in data set [1] amounted to 11.

For `CCCOc1ccc(NC(=O)C(=O)N2CCN(C)CC2)cc1-c1nc(CC)c(CC)c(=O)[nH]1`, the Ratio IC50 in data set [1] turned out to be 17. In data set [2], this compound yielded an IC50 of 1.55 nM.

For the compound `CCCOc1ccc(NC(=O)C(N)=O)cc1-c1nc(CC)c(CC)c(=O)[nH]1`, the Ratio IC50 in data set [1] was found to be 22.

For the compound `CCCc1nn(C)c2c(=O)[nH]c(-c3cc(S(=O)(=O)N4CCN(C)CC4)ccc3OCC)nc12`, the outcome in data set [3], in data set [4], in [5] and in data set [14] was Active. For the same compound, the bioavailability in data set [6] stood at 34%. The half-life in [7] is 0.65 h; in data set [8], 1.1 h. The compound also showed a clearance in [9] of 30.5 mL/min/kg. Besides, the outcome in data set [10] and in data set [11] was inactive. In addition, the Tmax in [12] turned out to be 1.6 h. Further, the Cmax in data set [13] amounted to 76 ng/mL. The Vd in data set [15] is 1.6 L/kg.

As for `CCCOc1ccc(NC(=O)CN2CCCCC2)cc1-c1nc(CC)c(CC)c(=O)[nH]1`, in [1], the Ratio IC50 came to 9. Further, the IC50 in data set [2] amounted to 1.46 nM.

Regarding `CCCOc1ccc(S(=O)(=O)N2CCN(C)CC2)cc1-c1nc(CC)c(CC)c(=O)[nH]1`, the remaining at 0.5 h, 1 µM in [16] amounted to 29%.

In the case of `CCCOc1ccc(NC(=O)CCCNC(C)=O)cc1-c1nc(CC)c(CC)c(=O)[nH]1`, the Ratio IC50 in data set [1] is 7.

`CN1CC(=O)N2[C@H](c3ccc4c(c3)OCO4)c3[nH]c4ccccc4c3C[C@@H]2C1=O`: in data set [17], the Vdss worked out at 5.2 L/kg. The IC50 in [18], in data set [19], in data set [20], in data set [22], in data set [23] and in data set [24] was greater than 10000 nM each time. Further, the IC50 in data set [25] was greater than 10000 nM. Moreover, the CL in [21] came to 5.17 mL/min/kg.

Regarding `CCCOc1ccc(S(=O)(=O)NCCC(=O)O)cc1-c1nc(CC)c(CC)c(=O)[nH]1`, the Ratio IC50 in data set [1] was determined as 86. Further, the result in data set [26] was inactive. The remaining at 0.5 h, 1 µM in data set [16] came to 100%. Also, half-maximal inhibition in data set [2] (IC50) required 1.69 nM.

For the compound `CCCOc1ccc(NC(=O)C2CCN(C)CC2)cc1-c1nc(CC)c(CC)c(=O)[nH]1`, the Ratio IC50 in data set [1] was found to be 24. This compound also had an IC50 in [2] of 0.79 nM.

Take `CCCOc1ccc(NC(=O)CC)cc1-c1nc(CC)c(CC)c(=O)[nH]1`: the Ratio IC50 in [1] was found to be 11.

On to `CCCOc1ccc(NS(C)(=O)=O)cc1-c1nc(CC)c(CC)c(=O)[nH]1`, for which the Ratio IC50 in data set [1] came to 28. In addition, the remaining at 0.5 h, 1 µM in [16] was determined as 27%.

`CCCOc1ccc(NC(=O)[C@@H]2CCCN2C(C)=O)cc1-c1nc(CC)c(CC)c(=O)[nH]1`: the Ratio IC50 in data set [1] came out at 10. The compound further displayed an IC50 in data set [2] of 0.54 nM.

One may read the IC50 as the concentration that inhibits the measured activity by half. The low end stands for greater potency, the high end for weaker potency. A word on the bioavailability: it is the share of a dose that reaches the circulation, judged against a reference dose that is usually intravenous. A low value points to little systemic uptake. The term half-life denotes the time in which the quantity being followed falls by half. The low end stands for fast loss, the high end for slow loss. The clearance is the rate of elimination divided by the concentration. A lower clearance goes with inefficient removal. The Tmax is the time from dosing to the highest level. For orientation: Cmax means the highest concentration seen after dosing. As a reminder, the Vdss is the apparent volume that relates the amount in the body to the concentration in plasma or blood. High values mean extensive tissue distribution, low ones confinement near the circulation.
